# Reference: ChEMBL document CHEMBL3112450, “Synthesis and in vitro antitumor evaluation of primary amine substituted quinazoline linked benzimidazole” (Bioorg Med Chem Lett, 2014)
# How the values were obtained:
# Type in all cases: functional
# [1] = test system: HOP-92; test: Cytotoxicity against human HOP92 cells assessed as growth inhibition at 10 uM after 48 hrs by SRB assay; settings: HOP-92, 48 h, read-out: GI
# [2] = Cytotoxicity against human OVCAR4 cells assessed as cell growth at 10^-7 M after 48 hrs by SRB assay; settings: OVCAR-4, 48 h, read-out: Activity
# [3] = test system: UACC-62; test: Cytotoxicity against human UACC62 cells assessed as cell growth at 10^-7 M after 48 hrs by SRB assay; settings: UACC-62, 48 h, read-out: Activity
# [4] = test system: NCI-H322M; test: Cytotoxicity against human NCI-H322M cells after 48 hrs by SRB assay
# [5] = test system: HL-60(TB); test: Cytotoxicity against human HL-60(TB) cells after 48 hrs by SRB assay; settings: HL-60, 48 h
# [6] = test system: BT-549; test: Cytotoxicity against human BT549 cells assessed as cell growth at 10^-4 M after 48 hrs by SRB assay; settings: BT-549, 48 h, read-out: Activity
# [7] = test system: MDA-MB-231; test: Cytotoxicity against human MDA-MB-231 cells assessed as cell growth at 10^-4 M after 48 hrs by SRB assay; settings: MDA-MB-231, 48 h, read-out: Activity
# [8] = test system: SK-MEL-5; test: Cytotoxicity against human SK-MEL-5 cells assessed as cell growth at 10^-7 M after 48 hrs by SRB assay; settings: SK-MEL-5, 48 h, read-out: Activity
# [9] = test system: Malme-3M; test: Cytotoxicity against human MALME-3M cells assessed as cell growth at 10^-7 M after 48 hrs by SRB assay; settings: read-out: Activity
# [10] = test system: SNB-19; test: Cytotoxicity against human SNB19 cells assessed as cell growth at 10^-7 M after 48 hrs by SRB assay; settings: SNB-19, 48 h, read-out: Activity
# [11] = test system: RPMI-8226; test: Cytotoxicity against human RPMI8226 cells assessed as cell growth at 10^-7 M after 48 hrs by SRB assay; settings: RPMI-8226, 48 h, read-out: Activity
# [12] = test system: HL-60(TB); test: Cytotoxicity against human HL-60(TB) cells assessed as cell growth at 10^-7 M after 48 hrs by SRB assay; settings: HL-60, 48 h, read-out: Activity
# [13] = test system: MDA-MB-231; test: Cytotoxicity against human MDA-MB-231 cells assessed as cell growth at 10^-8 M after 48 hrs by SRB assay; settings: MDA-MB-231, 48 h, read-out: Activity
# [14] = test system: MDA-MB-435; test: Cytotoxicity against human MDA-MB-435 cells assessed as cell growth at 10^-4 M after 48 hrs by SRB assay; settings: MDA-MB-435, 48 h, read-out: Activity
# [15] = test system: SK-MEL-2; test: Cytotoxicity against human SK-MEL-2 cells assessed as cell growth at 10^-4 M after 48 hrs by SRB assay; settings: SK-MEL-2, 48 h, read-out: Activity
# [16] = test system: M14; test: Cytotoxicity against human M14 cells assessed as cell growth at 10^-4 M after 48 hrs by SRB assay; settings: M14, 48 h, read-out: Activity
# [17] = test system: HCC 2998; test: Cytotoxicity against human HCC2998 cells assessed as cell growth at 10^-4 M after 48 hrs by SRB assay; settings: HCC 2998, 48 h, read-out: Activity
# [18] = test system: HCT-116; test: Cytotoxicity against human HCT116 cells assessed as cell growth at 10^-4 M after 48 hrs by SRB assay; settings: HCT-116, 48 h, read-out: Activity
# [19] = test system: NCI-H460; test: Cytotoxicity against human NCI-H460 cells assessed as cell growth at 10^-4 M after 48 hrs by SRB assay; settings: NCI-H460, 48 h, read-out: Activity
# [20] = test system: NCI-H322M; test: Cytotoxicity against human NCI-H322M cells assessed as cell growth at 10^-4 M after 48 hrs by SRB assay; settings: read-out: Activity
# [21] = test system: HOP-92; test: Cytotoxicity against human HOP92 cells assessed as cell growth at 10^-4 M after 48 hrs by SRB assay; settings: HOP-92, 48 h, read-out: Activity
# [22] = test system: SW-620; test: Cytotoxicity against human SW620 cells assessed as cell growth at 10^-8 M after 48 hrs by SRB assay; settings: SW-620, 48 h, read-out: Activity
# [23] = test system: HCT-116; test: Cytotoxicity against human HCT116 cells assessed as cell growth at 10^-8 M after 48 hrs by SRB assay; settings: HCT-116, 48 h, read-out: Activity
# [24] = test system: HCC 2998; test: Cytotoxicity against human HCC2998 cells assessed as cell growth at 10^-8 M after 48 hrs by SRB assay; settings: HCC 2998, 48 h, read-out: Activity
# [25] = test system: NCI-H522; test: Cytotoxicity against human NCI-H522 cells assessed as cell growth at 10^-8 M after 48 hrs by SRB assay; settings: NCI-H522, 48 h, read-out: Activity
# [26] = test system: K562; test: Cytotoxicity against human K562 cells assessed as cell growth at 10^-8 M after 48 hrs by SRB assay; settings: K562, 48 h, read-out: Activity
# [27] = Cytotoxicity against human UO31 cells after 48 hrs by SRB assay; settings: UO-31, 48 h
# [28] = test system: CAKI-1; test: Cytotoxicity against human Caki1 cells after 48 hrs by SRB assay; settings: CAKI-1, 48 h
# [29] = Cytotoxicity against human OVCAR4 cells after 48 hrs by SRB assay; settings: OVCAR-4, 48 h
# [30] = test system: COLO 205; test: Cytotoxicity against human COLO205 cells after 48 hrs by SRB assay; settings: COLO 205, 48 h
# [31] = test system: A498; test: Cytotoxicity against human A498 cells assessed as cell growth at 10^-6 M after 48 hrs by SRB assay; settings: A498, 48 h, read-out: Activity
# [32] = test system: UACC-62; test: Cytotoxicity against human UACC62 cells assessed as cell growth at 10^-6 M after 48 hrs by SRB assay; settings: UACC-62, 48 h, read-out: Activity
# [33] = test system: IGROV-1; test: Cytotoxicity against human IGROV1 cells assessed as cell growth at 10^-6 M after 48 hrs by SRB assay; settings: IGROV-1, 48 h, read-out: Activity
# [34] = test system: MDA-MB-435; test: Cytotoxicity against human MDA-MB-435 cells assessed as cell growth at 10^-6 M after 48 hrs by SRB assay; settings: MDA-MB-435, 48 h, read-out: Activity
# [35] = test system: SF-539; test: Cytotoxicity against human SF539 cells assessed as cell growth at 10^-6 M after 48 hrs by SRB assay; settings: SF-539, 48 h, read-out: Activity
# [36] = test system: NCI-H460; test: Cytotoxicity against human NCI-H460 cells assessed as cell growth at 10^-6 M after 48 hrs by SRB assay; settings: NCI-H460, 48 h, read-out: Activity
# [37] = test system: K562; test: Cytotoxicity against human K562 cells assessed as cell growth at 10^-6 M after 48 hrs by SRB assay; settings: K562, 48 h, read-out: Activity
# [38] = test system: CCRF-CEM; test: Cytotoxicity against human CCRF-CEM cells assessed as cell growth at 10^-6 M after 48 hrs by SRB assay; settings: read-out: Activity
compound,measurement,setting,value
C=CCn1c(C)nc2ccc(Nc3nc(Nc4ncccn4)nc4ccccc34)cc21,inhibition of growth at 10 µM,[1],30%
C=CCn1c(C)nc2ccc(Nc3nc(NCCO)nc4ccccc34)cc21,inhibition of growth at 10 µM,[1],30%
C=CCn1c(C)nc2ccc(Nc3nc(Nc4ccc5nc(C)n(CC=C)c5c4)c4ccccc4n3)cc21,growth at 0.1 µM,[2],95%
same,growth at 0.1 µM,[3],94%
same,GI50,[4],1.71 µM
same,LC50,[4],6.15 µM
same,TGI,[4],3.24 µM
same,GI50,[5],1.86 µM
same,TGI,[5],3.72 µM
same,growth at 100 µM,[6],-32%
same,growth at 100 µM,[7],-63%
same,growth at 0.1 µM,[8],94%
same,growth at 0.1 µM,[9],92%
same,growth at 0.1 µM,[10],92%
same,growth at 0.1 µM,[11],99%
same,growth at 0.1 µM,[12],94%
same,growth at 0.01 µM,[13],92%
same,growth at 100 µM,[14],-5%
same,growth at 100 µM,[15],-25%
same,growth at 100 µM,[16],-7%
same,growth at 100 µM,[17],-53%
same,growth at 100 µM,[18],1%
same,growth at 100 µM,[19],-28%
same,growth at 100 µM,[20],-58%
same,growth at 100 µM,[21],-47%
same,growth at 0.01 µM,[22],98%
same,growth at 0.01 µM,[23],108%
same,growth at 0.01 µM,[24],92%
same,growth at 0.01 µM,[25],97%
same,growth at 0.01 µM,[26],96%
same,GI50,[27],1.36 µM
same,TGI,[27],2.88 µM
same,GI50,[28],1.72 µM
same,TGI,[28],3.36 µM
same,GI50,[29],1.53 µM
same,TGI,[29],2.87 µM
same,GI50,[30],1.43 µM
same,TGI,[30],2.74 µM
same,inhibition of growth at 10 µM,[1],50%
same,growth at 1 µM,[31],42%
same,growth at 1 µM,[32],86%
same,growth at 1 µM,[33],99%
same,growth at 1 µM,[34],92%
same,growth at 1 µM,[35],94%
same,growth at 1 µM,[36],97%
same,growth at 1 µM,[37],68%
same,growth at 1 µM,[38],82%
C=CCn1c(C)nc2cc(Nc3nc(Nc4ccc5nc(C)n(CC=C)c5c4)c4ccccc4n3)ccc21,growth at 0.1 µM,[2],102%
same,growth at 0.1 µM,[3],98%
same,GI50,[4],0.717 µM
same,LC50,[4],4.47 µM
same,TGI,[4],2 µM
same,GI50,[5],1.78 µM
same,TGI,[5],3.65 µM
same,growth at 100 µM,[6],-46%
same,growth at 100 µM,[7],-46%
same,growth at 0.1 µM,[8],94%
same,growth at 0.1 µM,[9],97%
same,growth at 0.1 µM,[10],88%
same,growth at 0.1 µM,[11],100%
same,growth at 0.1 µM,[12],96%
same,growth at 0.01 µM,[13],111%
same,growth at 100 µM,[14],-30%
same,growth at 100 µM,[15],-17%
same,growth at 100 µM,[16],-4%
same,growth at 100 µM,[17],-88%
same,growth at 100 µM,[18],3%
same,growth at 100 µM,[19],1%
same,growth at 100 µM,[20],-70%
same,growth at 100 µM,[21],-84%
same,growth at 0.01 µM,[22],97%
same,growth at 0.01 µM,[23],106%
same,growth at 0.01 µM,[24],99%
same,growth at 0.01 µM,[25],97%
same,growth at 0.01 µM,[26],103%
same,GI50,[27],1.34 µM
same,LC50 (concentration causing 50% net cell kill),[27],5.17 µM
same,TGI,[27],2.63 µM
same,GI50,[28],1.61 µM
same,LC50 (concentration causing 50% net cell kill),[28],5.69 µM
same,TGI,[28],3.03 µM
same,GI50,[29],0.276 µM
same,TGI,[29],0.73 µM
same,GI50,[30],0.195 µM
same,TGI,[30],0.375 µM
same,growth at 1 µM,[31],93%
same,growth at 1 µM,[32],66%
same,growth at 1 µM,[33],82%
same,growth at 1 µM,[34],32%
same,growth at 1 µM,[35],56%
same,growth at 1 µM,[36],-53%
same,growth at 1 µM,[37],-45%
same,growth at 1 µM,[38],-14%
C=CCn1c(C)nc2ccc(Nc3nc(Nc4ccc(F)cc4)nc4ccccc34)cc21,growth at 0.1 µM,[2],95%
same,growth at 0.1 µM,[3],95%
same,GI50,[4],6.16 µM
same,LC50,[4],55.1 µM
same,TGI,[4],21.5 µM
same,GI50,[5],4.95 µM
same,LC50,[5],> 100 µM
same,TGI,[5],23.3 µM
same,growth at 100 µM,[6],-61%
same,growth at 100 µM,[7],-37%
same,growth at 0.1 µM,[8],93%
same,growth at 0.1 µM,[9],98%
same,growth at 0.1 µM,[10],93%
same,growth at 0.1 µM,[11],103%
same,growth at 0.1 µM,[12],100%
same,growth at 0.01 µM,[13],99%
same,growth at 100 µM,[14],-53%
same,growth at 100 µM,[15],-70%
same,growth at 100 µM,[16],-44%
same,growth at 100 µM,[17],-80%
same,growth at 100 µM,[18],-77%
same,growth at 100 µM,[19],-55%
same,growth at 100 µM,[20],-82%
same,growth at 100 µM,[21],-84%
same,growth at 0.01 µM,[22],99%
same,growth at 0.01 µM,[23],99%
same,growth at 0.01 µM,[24],95%
same,growth at 0.01 µM,[25],89%
same,growth at 0.01 µM,[26],102%
same,GI50,[27],4.53 µM
same,LC50 (concentration causing 50% net cell kill),[27],52.8 µM
same,TGI,[27],19.3 µM
same,GI50,[28],6.86 µM
same,LC50 (concentration causing 50% net cell kill),[28],92.6 µM
same,TGI,[28],27.5 µM
same,GI50,[29],2.06 µM
same,LC50,[29],> 100 µM
same,TGI,[29],5.81 µM
same,GI50,[30],1.75 µM
same,TGI,[30],3.25 µM
same,growth at 1 µM,[31],65%
same,growth at 1 µM,[32],91%
same,growth at 1 µM,[33],91%
same,growth at 1 µM,[34],90%
same,growth at 1 µM,[35],89%
same,growth at 1 µM,[36],88%
same,growth at 1 µM,[37],96%
same,growth at 1 µM,[38],94%
C=CCn1c(C)nc2cc(Nc3nc(NCCO)nc4ccccc34)ccc21,inhibition of growth at 10 µM,[1],40%
C=CCn1c(C)nc2ccc(Nc3nc(Sc4ccc(N)cc4)nc4ccccc34)cc21,inhibition of growth at 10 µM,[1],30%
